Measured values taken from US20190008870A1, “COMPOSITIONS AND METHODS FOR LIPID METABOLISM DISORDER” (JANSFAT BIOTECHNOLOGY CO., LTD., priority 2016, published 2019).

Columns and labels:
mice fed with HFD = assay: Serum and liver lipid levels of mice fed with HFD; format: in vivo
Method: (§1) During the 2 month experiments, mice fasted for one night before the experiment was changed from a standard diet (STD) to an HFD and then the mice were randomly divided into 13 groups, including a protection group, 2 control and 10 treatment groups. Six mice were used in each group. […] Liver from the protection group supplemented with KMUP-1 HCl (1 mg/kg/day) were used to determine the HMG CoA reductase expression. Each group of mice had free access to drinking water from week 1 to week 14. Tap water was used to normalize mineral nutrition.
Within 2 months, the 3 day food intake average for each animal was measured. The weight gain and plasma lipid levels of each group were determined and compared to the non-treatment control group. […] Agents used in the assays were obtained from Merck & Co. (Kenilworth, N.J., U.S.A.). Triglyceride (TG), total cholesterol, HDL cholesterol and LDL cholesterol in mouse serum were measured by methods used in the clinic. To measure the hepatic Triglyceride, isolated liver were cut into small chips.

eNOS = assay: IHC staining of eNOS in epididymal fat pads; format: in vivo, mice; conditions: HFD 14 weeks, KMUP-1 2.5 mg/kg/day, Control 50.5
Method: For IHC of MMP-9/TNFα, HSL/p-HSL/ATGL and eNOS/IL-10, antigen retrieval of de-paraffinated sections was performed in Dako target retrieval solution, pH 9.0, in a vegetable steamer followed by the quenching of endogenous peroxidase activity with 3.0% H2O2 in methanol. Sections were then incubated with specific primary antibodies overnight at 4° C. in a humidified chamber. The antibodies used included rabbit polyclonal anti-eNOS (1:50 dilution) (Abcam, Cambridge, UK) or rabbit monoclonal anti-cleaved caspase-3 (1:50 dilution) (Cell Signaling, U.S.A.). The sections were then examined using a DAKO REAL EnVision™ Detection System kit (DAKO, Carpinteria, Calif., U.S.A.) and counterstained with hematoxylin. Images were obtained through a Nikon Eclipse TE200-S microscope.

HMG CoA reductase = assay: HFD-induced HMG CoA reductase expression in liver; format: in vivo, mice
Method: as §1, with “In the experiment, C57BL/6J male mice (21-22 g), after fasting, were fed an HFD as a model of hyperlipidemia for 8 weeks. During” for “During”
(§2) For the expression of SR-B1, HMGR, PPARγ and ROCK II, isolated liver tissues were cut into small chips and placed into an extraction buffer (Tris 10 mM, pH 7.0, NaCl 140 mM, PMSF 2 mM, DTT 5 mM, NP-40 0.5%, pepstatin A 0.05 mM and leupeptin 0.2 mM) for hepatic protein extraction, and centrifuged at 20,000×g for 30 minutes. The obtained protein extract was boiled to a ratio of 4:1 with a sample buffer (Tris 100 mM, pH 6.8, glycerol 20%, SDS 4% and bromophenol blue 0.2%). Electrophoresis was performed using 10% SDS-polyacrylamide gel (1 hour, 100 V, 40 mA, 20 μg protein per lane).
(§3) Separated proteins, after 3 repeated centrifugations to discard up-layer tissue lipid in purity, were transferred to PVDF membranes treated with 5% fat-free milk powder to block the nonspecific IgGs (90 minutes, 100 V) and incubated for 1 hour with specific protein antibody. The blot was then incubated with anti-mouse or anti-goat IgG linked to alkaline phosphatase (1:1000) for 1 hour.

ROCK II = assay: HFD-induced ROCK II expression in liver; format: in vivo, mice; conditions: for ROCK II: HFD mice, CTL 100
Method: as §1, with “In the experiment, C57BL/6J male mice (21-22 g), after fasting, were fed an HFD as a model of hyperlipidemia for 8 weeks. During” for “During”
as §2, §3

PPARγ = assay: HFD-induced PPARγ expression in liver; format: in vivo, mice
Method: as §1, with “In the experiment, C57BL/6J male mice (21-22 g), after fasting, were fed an HFD as a model of hyperlipidemia for 8 weeks. During” for “During”
as §2, §3

LXRα = LXRα expression in HepG2 cells; format: cell-based; conditions: 10^−9-10^−5 M
Method: The HepG2 hepatoma cell line was purchased from the American Type Culture Collection (ATCC, Manassas, Va., U.S.A.). Cells were cultured in Dulbecco's Modified Eagle's Medium (DMEM). The culture media was supplemented with 5% heat-inactivated FBS, penicillin (100 U/mL) and streptomycin (100 μg/mL). Cells were grown in a humidified atmosphere containing 5% CO2 at 37° C., in which the oxygen tension in the incubator was held at 140 mmHg (20% O2, v/v; normoxic conditions). […] Then the targeted drugs solution was incubated with the cells for 24 hours, followed by protein extraction. The targeted drugs were added to the […].
HepG2 cells were treated with various concentrations of targeted drugs for 24 hours. Reactions were terminated by washing twice with cold PBS, and the cells were then harvested. Proteins in the whole-cell lysate were homogenized in an ice-cold lysis buffer and a protease inhibitor (Sigma-Aldrich, St. Louis, Mo., U.S.A.). The homogenate was centrifuged at 90,000×g for 15 minutes at 4° C., and supernatant was recovered as the total cellular protein. […]

LDLRs [1] = assay: IHC staining of LDLRs in livers of HFD mice; format: in vivo; conditions: HFD animals, protection and treatment groups
LDLRs [2] = assay: Fluorescence staining of LDLRs in HepG2 cells; format: cell-based
Method: HepG2 cells were used to determine the cellular protein expression of LDLRs in the presence of exogenous LDL (500 μg/mL). […] All images were collected and analyzed by scanning with Nikon Eclipse TE200-S microscope (Tokyo, Japan).

[3] = Simva 5 mg/kg, CTL 100 (Table 9)

SMILES: Cn1c(=O)c2c(ncn2CCN2CCN(c3ccccc3Cl)CC2)n(C)c1=O [KMUP-1, 7-[2-[4-(2-chlorophenyl)piperazinyl]ethyl]-1,3-dimethylxanthine]
- HDL cholesterol (mice fed with HFD; 2.5 mg/kg p.o.): 103.6 ± 4.2 mg/dL
- LDL cholesterol (mice fed with HFD; 2.5 mg/kg p.o.): 14.2 ± 1.4 mg/dL
- TG in serum (Triacylglycerol) (mice fed with HFD; 2.5 mg/kg p.o.): 74.5 ± 5.1 mg/dL
- TG of liver (mice fed with HFD; 2.5 mg/kg p.o.): 28.4 ± 3.6 mg/dL
- Tot. chol. (total cholesterol) (mice fed with HFD; 2.5 mg/kg p.o.): 133.0 ± 5.1 mg/dL
- HDL cholesterol (mice fed with HFD; 5 mg/kg p.o.): 118.3 ± 5.7 mg/dL
- LDL cholesterol (mice fed with HFD; 5 mg/kg p.o.): 14.2 ± 2.2 mg/dL
- TG in serum (Triacylglycerol) (mice fed with HFD; 5 mg/kg p.o.): 72.7 ± 4.7 mg/dL
- TG of liver (mice fed with HFD; 5 mg/kg p.o.): 26.12 ± 3.1 mg/dL
- Tot. chol. (total cholesterol) (mice fed with HFD; 5 mg/kg p.o.): 125.5 ± 9.8 mg/dL
- HDL chol. (mice fed with HFD; Dose 2.5 mg/kg (Table 2)): 103.6 ± 4.2 mg/dL
- LDL chol. (mice fed with HFD; Dose 2.5 mg/kg (Table 2)): 14.2 ± 1.4 mg/dL
- TG (mice fed with HFD; Dose 2.5 mg/kg (Table 2)): 74.5 ± 5.1 mg/dL
- Tot. chol. (mice fed with HFD; Dose 2.5 mg/kg (Table 2)): 133 ± 5.1 mg/dL
- HDL chol. (mice fed with HFD; Dose 5 mg/kg (Table 2)): 118.3 ± 5.7 mg/dL
- LDL chol. (mice fed with HFD; Dose 5 mg/kg (Table 2)): 14.2 ± 2.2 mg/dL
- TG (mice fed with HFD; Dose 5 mg/kg (Table 2)): 72.67 ± 4.7 mg/dL
- Tot. chol. (mice fed with HFD; Dose 5 mg/kg (Table 2)): 125.5 ± 9.8 mg/dL
- HFD-induced hypercholesterolemia (mice fed with HFD; supplementation): significantly improved
- Immunorespons percentages, eNOS (eNOS): 39%
- HMGR (HMG CoA reductase; HFD mice, 1 mg/kg, CTL 100): 43%
- HMGR (HMG CoA reductase; HFD mice, 2.5 mg/kg, CTL 100): 150%
- HMGR (HMG CoA reductase; HFD mice, 5 mg/kg, CTL 100): 140%
- ROCK II (ROCK II; 1 mg/kg): 30%
- ROCK II (ROCK II; 2.5 mg/kg): 25%
- ROCK II (ROCK II; 5 mg/kg): 10%
- PPARγ (PPARγ; HFD mice, 1 mg/kg, CTL 100): 53%
- PPARγ (PPARγ; HFD mice, 2.5 mg/kg, CTL 100): 249%
- PPARγ (PPARγ; HFD mice, 5 mg/kg, CTL 100): 245%
- LXRα expression (LXRα): concentration-dependently increased
- hepatic LDLRs (IHC staining) (LDLRs [1]): increased
- LDLR (green fluorescence) expression (LDLRs [2]; 24 hours, KMUP-1 10^−6, 10^−5, 10^−4 M, simvastatin 10^−5 M): increased
- LDLR fluorescence at high concentration (LDLRs [2]; concentrations >10^−4 M, near the viability range): decline in fluoresence

SMILES: CCC(C)(C)C(=O)O[C@H]1C[C@@H](C)C=C2C=C[C@H](C)[C@H](CC[C@@H]3C[C@@H](O)CC(=O)O3)[C@H]21 [Simva, Simvastatin, reference compound]
- HDL chol. (mice fed with HFD; Dose 5 mg/kg (Table 2)): 108.4 ± 1.3 mg/dL
- LDL chol. (mice fed with HFD; Dose 5 mg/kg (Table 2)): 17.3 ± 1.4 mg/dL
- TG (mice fed with HFD; Dose 5 mg/kg (Table 2)): 81.2 ± 4.4 mg/dL
- Tot. chol. (mice fed with HFD; Dose 5 mg/kg (Table 2)): 129.7 ± 1.4 mg/dL
- HMGR (HMG CoA reductase; [3]): 100%
- ROCKII (ROCK II; [3]): 43%
- PPARγ (PPARγ; [3]): 280%
